Test results: patent publication US20190212343A1, “METHODS FOR THE TREATMENT OF DISORDERS RELATED TO PHOSPHORYLATION OF HISTONES” (H. LEE MOFFITT CANCER CENTER AND RESEARCH INSTITUTE, INC., priority 2014, published 2019)
Residues, ends and D or L forms follow the SMILES beside them. *: point of attachment. Cbz = O=C(OCc1ccccc1)*

Experiments:
[1] = tested on: WEE1 expressing cancer cell lines; details: cited from earlier work
WEE1 = details: yeast and mammalian cells; cited from earlier work
IDH2 transcript = assay: Epigenetic marks and IDH2 transcript levels in melanoma cancer cells; assay type: cell-based, human
[2] = tested on: H4 Y88-phosphorylation (ACK1); assay: Endogenous H4 pY88-phosphorylation in LNCaP cells (pY88-H4 immunoprecipitation / H4 immunoblot); assay type: cell-based, human; details: 16 hrs
Method: FIGS. 9A-9E show ACK1 phosphorylates histone H4 at Tyrosine 88. (FIG. 9A) peptide were spotted followed by immunoblotting with indicated antibodies. (FIG. 9B) Equimolar amounts of purified ACK1 and H4 proteins were incubated in the presence of AIM-100 (100 nM) and reaction subjected to immunoblotting with pTyr antibodies. (FIG. 9C) In vitro kinase assay performed using purified ACK1 and H4, followed by immunoblotting with pY88-H4 antibodies. (FIG. 9D) H4 Y88-phosphorylation in vivo. LNCaP cells were treated with DZI-067, AIM-100 or Enzalutamide (7 uM, 16 hrs). The nuclear lysates were immunoprecipitated with pY88-H4 antibodies followed by immunoblotting with H4. Lower panel is input lysate. (FIG. 9E) LNCaP cells were treated with Crizotinib (1 uM, 16 hrs). The cell lysates were immunoprecipitated with pY88-H4 antibodies followed by immunoblotting with H4 (upper panel).
To explore the sensitivity of endogenous H4 pY88-phosphorylation to ACK1 inhibitor, LNCaP cells were treated with DZI-067, AIM-100 or Enzalutamide.
Applicant also assessed the sensitivity of endogenous H4 pY88-phosphorylation to small molecule inhibitor, Crizotinib, also known as Xalkori (Pfizer). […] It is approved for treatment of some non-small cell lung carcinoma (NSCLC).

AR mRNA = AR mRNA levels in androgen-deprived prostate cancer cells (qPCR with AR primers); assay type: cell-based, human; details: androgen-deprived LAPC4 and LNCaP cells, overnight treatment
CRPC patients = details: cited from earlier work
PSA mRNA = PSA mRNA levels in androgen-deprived prostate cancer cells (qPCR with PSA primers); assay type: cell-based, human; details: overnight treatment
Method: (FIG. 7A) VCaP and (FIG. 7B) LNCaP cells were grown in absence of androgen and were overnight treated with DZI-067 (7 uM in VCaP, 2.5 & 5 uM in LnCaP), AIM-100 (7 uM), PLX4032 (7 uM), Casodex, Enzalutamide (10 uM) and DHT (10 nM, 3 Hr). Total RNA was isolated followed by qPCR with AR primers. VCaP, *p=0.022, **p=0.018; LNCaP, *p=0.042, **p=0.047, ***p=0.029. (FIG. 7C) VCaP and (FIG. 7D) LNCaP cells were grown in absence of androgen and were overnight treated with DZ1-067 (7 uM in LAPC4, 2.5 & 5 uM in LnCaP), AIM-100 (7 uM), PLX4032 (7 uM), Casodex, Enzalutamide (10 uM) and DHT (10 nM, 3 Hr). Total RNA was isolated followed by qPCR with PSA primers.

AR protein levels = AR protein levels in androgen deprived prostate cancer cells (immunoblotting); assay type: cell-based, human; details: LNCaP cells, MG 132 10 uM 6 hr, in presence or absence of AIM-100
Method: (FIG. 6A) Androgen starved LAPC4 cells were treated with DHT (10 nM, 16 Hrs), AIM-100, DZI-067, Enzalutamide or PLX4032 (7 uM, 36 Hr) and AR, pACK1 and Actin levels were determined by immunoblotting (IB). The relative level of AR is shown below. (FIG. 6B) Androgen deprived LNCaP and VCaP cell were untreated or treated with 2.5, 5 and 10 uM of AIM-100 and lysates were immunoblotted. The quantitation of AR expression is shown. (FIG. 6C) Androgen deprived LNCaP and VCaP cell were untreated or treated with 2.5, 5 and 10 uM of DZI-067 and lysates were immunoblotted. The quantitation of AR expression is shown. (FIG. 6D) LNCaP cells were transfected with control and Ack1 siRNAs followed by immunoblotting. (FIG. 6E) LNCaP cells treated with AIM-100 (7 uM, 16 hr) or MG 132 (10 uM, 6 hr) were immunoblotted with AR antibodies. […]
AR has been known to interact with an ubiquitin E3 ligase, RNF6, causing AR ubiquitination, which in turn promoted AR transcriptional activity (Xu, K. et al. (2009) Cancer Cell 15(4):270-282). To determine whether post-translational modification has role to play in suppression of AR levels upon Ack1 kinase inhibition, LNCaP cells were treated with proteosomal inhibitor, MG-132 and AR levels were measured in presence or absence of AIM-100.

For `C=CCn1c(=O)c2cnc(Nc3ccc(N4CCN(C)CC4)cc3)nc2n1-c1cccc(C(C)(C)O)n1` [MK-1775], the apoptosis [1] is listed as “selectively induces apoptosis”, the WEE1 epigenetic activity (WEE1) is listed as “inhibited WEE1 epigenetic activity” and the histone transcriptional suppression (WEE1) is listed as “robustly reversed histone transcriptional suppression”. For the same compound, the IDH2 transcript levels (IDH2 transcript) was “increasing IDH2 transcript levels” and the WEE1 epigenetic marks (IDH2 transcript) was “reversed epigenetic marks”.

With `C[C@@H](Oc1cc(-c2cnn(C3CCNCC3)c2)cnc1N)c1c(Cl)ccc(F)c1Cl` [Crizotinib] the “endogenous pY88-phosphorylation of H4” value ([2]; 1 uM) was “significant loss of endogenous pY88-phosphorylation of H4”.

In the case of `CNC(=O)c1ccc(N2C(=S)N(c3ccc(C#N)c(C(F)(F)F)c3)C(=O)C2(C)C)cc1F` [Enzalutamide], the “AR mRNA levels” value (AR mRNA) is given as “no significant change in AR mRNA levels”, the “CRPC patients in whom treatment is effective” value (CRPC patients) is given as 12 out of 30 and the overall survival advantage (CRPC patients) is given as 4-6 months. The “time to relapse of the most responding patients” value (CRPC patients) was ≤ 2 years, the “endogenous pY88-phosphorylation of H4” value ([2]; 7 uM) was “unaffected” and the “PSA mRNA levels” value (PSA mRNA) was “significantly suppressed PSA mRNA levels”.

For `C[C@]12CCC(=O)C[C@@H]1CC[C@@H]1[C@@H]2CC[C@]2(C)[C@@H](O)CC[C@@H]12` [DHT, dihydrotestosterone], the “AR mRNA levels” value (AR mRNA) was “no significant change in AR mRNA levels” and the “endogenous pY88-phosphorylation of H4” value ([2]; 7 uM) was “unaffected”.

For `CC(O)(CS(=O)(=O)c1ccc(F)cc1)C(=O)Nc1ccc(C#N)c(C(F)(F)F)c1` (stereo not drawn) [Casodex], the “AR mRNA levels” value (AR mRNA) was “no significant change in AR mRNA levels” and the “PSA mRNA levels” value (PSA mRNA) was “significantly suppressed PSA mRNA levels”.

With `CC(C)C[C@@H](C=O)NC(=O)[C@H](CC(C)C)NC(=O)[C@H](CC(C)C)NC(=O)OCc1ccccc1` [MG-132] (Cbz-Leu-Leu-Leu-aldehyde) the “loss of AR caused by Ack1 kinase inhibition” value (AR protein levels) was “did not prevent loss of AR”.

For `CCCS(=O)(=O)Nc1ccc(F)c(C(=O)c2c[nH]c3ncc(-c4ccc(Cl)cc4)cc23)c1F` [PLX4032], the “AR mRNA levels” value (AR mRNA) was “no significant change in AR mRNA levels”.
